Assay results from PMC7356228, “Alvaxanthone, a Thymidylate Synthase Inhibitor with Nematocidal and Tumoricidal Activities” (Molecules, 2020).

Tests used:
[1] = system: caspases 3/7 in BJ, U-118 MG, and SCC-15 cells; assay: Apo-ONE Homogenous Caspase-3/7 Assay; format: cell-based, human; details: 48 h, 5–40 µM, span over the three cell lines
Experimental: (§1) Figure 4 Changes of caspase-3/7 activities and intracellular ATP level in BJ, U-118 MG, and SCC-15 cells after 48-h incubation with 5–40 µM alvaxanthone or rheediaxanthone B. Median results are presented of three independent experiments, each performed in triplicate. The whiskers are lower (25%) and upper (75%) quartile ranges.
The Apo-ONE® Homogenous Caspase-3/7 Assay provides a measurement of the executioner caspases 3/7 activation, characteristic for apoptosis induced via both the intrinsic and extrinsic pathway. It was used to determine apoptosis induction in cells by alvaxanthone and rheediaxanthone B. In each of the three cell lines, compared to the respective non-treated control, treatment with each of the two compounds for 48 h led to a significant activation of the caspases 3/7 (by 2- to 10-fold for alvaxanthone and 8- to 18-fold for rheediaxanthone B), the effect being stronger in cancer than normal cells (Figure 4).
(§2) Influence of selected compounds on cells was tested by performing the cytotoxicity (NR and XTT) assays, proliferation assay, cell adhesion assay, cell migration assay, determination of intracellular ATP level, and apoptosis assay as previously reported.

mTS = target: T1, mTS (Mus musculus, UniProt P07607); assay: Inhibition of TS-catalyzed reaction (tritium release from [5-3H]dUMP); format: biochemical
T1 construct: made in house
Text: (§3) The recombinant human, rat, mouse, T. spiralis and C. elegans TS proteins were produced, purified and separated into phosphorylated and non-phosphorylated fraction, as previously described. TS activity was monitored, following tritium release from [5-^3H]dUMP, and its inhibition studied as earlier reported.

hTS = target: T2, hTS (Homo sapiens, UniProt P04818); assay: as above; format: biochemical
T2 construct: made in house
Text: as §3

CeTS = target: T3, CeTS (Caenorhabditis elegans, UniProt Q9Y052); assay: as above; format: biochemical, C. elegans
T3 sequence (Q9Y052 1-315): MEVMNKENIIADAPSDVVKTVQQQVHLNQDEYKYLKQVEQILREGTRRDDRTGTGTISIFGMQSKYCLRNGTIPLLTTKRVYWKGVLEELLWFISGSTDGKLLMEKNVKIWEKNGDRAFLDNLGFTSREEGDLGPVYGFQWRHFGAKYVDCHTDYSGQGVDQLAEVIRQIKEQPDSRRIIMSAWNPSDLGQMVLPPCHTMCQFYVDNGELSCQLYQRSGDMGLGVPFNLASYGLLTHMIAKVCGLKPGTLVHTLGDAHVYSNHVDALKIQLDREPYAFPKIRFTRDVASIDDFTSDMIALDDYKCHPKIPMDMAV
Text: as §3

BJ cells [2] = assay: Intracellular ATP level (CellTiterGlo); format: cell-based, human; details: 48-h incubation, fibroblasts
Experimental: as §1
(§4) On the other hand, rheediaxanthone B caused a reduction of ATP level down to around 30% in glioma cells and fibroblasts, and to 20% in squamous carcinoma cells (Figure 4). In general, with increasing Caspase-3/7 activity the ATP level was decreasing, in accord with the results of Reference.
as §2

U-118 MG cells [3] = assay: Intracellular ATP level (CellTiterGlo); format: cell-based, human; details: 48-h incubation, glioma cells
Experimental: as §1, §4, §2

SCC-15 cells [4] = assay: Intracellular ATP level (CellTiterGlo); format: cell-based, human; details: 48-h incubation, squamous carcinoma cells
Experimental: as §1, §4, §2

BJ cells [5] = assay: Cell adhesion, crystal violet assay; format: cell-based, human; details: 48-h treatment
Experimental: (§5) Cancer metastasis, resulting from an impairment of adhesion between cancer cells and the extracellular matrix may cause cell migration from a primary tumor into distant parts of an organism. The cristal violet assay was used to examine alvaxanthone and rheediaxanthone B ability to influence cellular adhesion.
(§6) Figure 3 Influence of alvaxanthone or rheediaxanthone B on BJ, U-118 MG, and SCC-15 cells adhesion after 48-h treatment. The crystal violet assay was used. Results are medians of triplicate assays of three independent experiments expressed as a % of non-treated controls. The whiskers are lower (25%) and upper (75%) quartile ranges. * p ≤ 0.05, Kruskal–Wallis test (against non-treated control).
as §2

U-118 MG cells [6] = assay: Cell adhesion, crystal violet assay; format: cell-based, human; details: 48-h treatment
Experimental: as §5, §6, §2

SCC-15 cells [7] = assay: Cell adhesion, crystal violet assay; format: cell-based, human; details: 48-h treatment
Experimental: as §5, §6, §2

[8] = system: U-118 MG human glioblastoma cells; assay: Cytotoxicity, neutral red uptake (NR) assay; format: cell-based; details: neutral red assay, U-118 MG, read-out: IC50
Experimental: (§7) Biological effect of alvaxanthone and rheediaxanthone B on normal (BJ) and cancer cells (U-118 MG and SCC-15) was estimated using two viability assays, the neutral red uptake (NR) and tetrazolium salts reduction (XTT) assays.
(§8) Human glioblastoma cells U-118 MG (ATCC® HTB-15), human squamous carcinoma cells SCC-15 (ATCC® CRL-1623), and normal human skin fibroblasts (ATCC® CRL-2522) were grown, their morphology checked, and number and viability estimated as earlier presented.
as §2

[9] = system: SCC-15 human squamous carcinoma cells; assay: Cytotoxicity, neutral red uptake (NR) assay; format: cell-based; details: Homo sapiens, SCC-15, neutral red assay, read-out: IC50
Experimental: as §7, §8, §2

[10] = system: BJ, U-118 MG and SCC-15 cells; assay: NR assay, summary over the three cell lines; format: cell-based, human; details: Homo sapiens, 48 h, span over BJ
Experimental: as §7
Thus, alvaxanthone may be damaging mitochondria and impairing their metabolism exerting one of possible mechanisms active in destroying cancer cells. Changes of cell morphology in dependence on increasing alvaxanthone and rheediaxanthone B concentration were also recorded. While the glioma and squamous carcinoma cells formed clusters, lost their adhesion, shrank, and accumulated less NR dye, normal fibroblasts preserved rather normal shapes but the amount of the neutral red dye and confluence of cells decreased. In addition, a lower number of BJ cells was detected (Figure 1B).
as §2

TsTS = TsTS (Trichinella spiralis, UniProt Q9NDD3); assay: Inhibition of TS-catalyzed reaction (tritium release from [5-3H]dUMP); format: biochemical, T. spiralis
Text: as §3

[11] = system: BJ normal human skin fibroblasts; assay: Cytotoxicity, neutral red uptake (NR) assay; format: cell-based; details: Homo sapiens, Skin fibroblast; neutral red assay, BJ; read-out: IC50
Experimental: as §7, §8, §2

C. elegans = assay: Toxicity to C. elegans (population growth); details: Caenorhabditis elegans, read-out: LC50 (reduction of growth of the nematode population)
Experimental: C. elegans was maintained as previously described. The effect of the compounds studied on C. elegans population growth was determined as earlier presented.

[12] = 20 µM dUMP and 50 µM meTHF, experiment not repeated, read-out: IC50
[13] = compound 10 µM, 20 µM dUMP, 50 µM meTHF
[14] = compound 100 µM, 20 µM dUMP, 50 µM meTHF, read-out: % Remaining Activity

T2 sequence (P04818 whole entry): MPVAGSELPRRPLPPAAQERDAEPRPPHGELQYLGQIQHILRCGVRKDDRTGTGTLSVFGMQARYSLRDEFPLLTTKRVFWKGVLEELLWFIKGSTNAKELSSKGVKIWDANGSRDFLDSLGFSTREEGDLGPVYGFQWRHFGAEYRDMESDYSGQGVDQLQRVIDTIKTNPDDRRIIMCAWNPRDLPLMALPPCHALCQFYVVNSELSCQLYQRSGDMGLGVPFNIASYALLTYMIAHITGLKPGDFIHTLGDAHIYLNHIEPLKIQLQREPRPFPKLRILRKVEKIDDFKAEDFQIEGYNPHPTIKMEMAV
Sequence of TsTS (Q9NDD3 entry or part of it): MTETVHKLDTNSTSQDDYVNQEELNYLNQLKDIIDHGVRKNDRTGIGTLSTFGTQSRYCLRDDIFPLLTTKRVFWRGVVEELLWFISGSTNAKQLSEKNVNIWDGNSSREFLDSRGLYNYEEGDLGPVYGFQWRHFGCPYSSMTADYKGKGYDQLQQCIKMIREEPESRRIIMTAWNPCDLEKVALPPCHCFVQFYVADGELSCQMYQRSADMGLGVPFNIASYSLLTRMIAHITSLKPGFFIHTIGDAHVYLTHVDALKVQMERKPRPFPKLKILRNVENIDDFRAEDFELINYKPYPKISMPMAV
T1 sequence (P07607 whole entry): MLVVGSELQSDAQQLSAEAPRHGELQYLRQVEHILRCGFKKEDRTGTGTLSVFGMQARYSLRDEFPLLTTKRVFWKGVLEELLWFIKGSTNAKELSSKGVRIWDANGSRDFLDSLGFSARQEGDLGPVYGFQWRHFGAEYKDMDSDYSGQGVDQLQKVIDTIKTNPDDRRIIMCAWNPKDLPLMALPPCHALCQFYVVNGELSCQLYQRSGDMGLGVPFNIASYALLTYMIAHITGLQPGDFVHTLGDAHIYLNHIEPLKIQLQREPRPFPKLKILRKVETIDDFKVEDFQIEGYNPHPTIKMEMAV

Structure (SMILES): C=CC(C)(C)c1c2c(c3oc4c(O)c(O)ccc4c(=O)c3c1O)C(C)(C)C(C)O2 (stereo not drawn) [Rheediaxanthone B (17), Rheediaxanthone B]
- activation of the caspases 3/7 compared to non-treated control [1]: 8- to 18 fold
- IC50 (mTS; [12]): 14.3 µM
- remaining activity at 10 µM (mTS; [13]): 56%
- remaining activity at 100 µM (mTS; [14]): 2%
- IC50 (hTS; 20 µM dUMP and 50 µM meTHF, mean ± S.E.M. (N=3) for alvaxanthone, rheediaxanthone B not repeated, read-out: IC50): 17.9 µM
- remaining activity at 10 µM (hTS; [13]): 59%
- remaining activity at 100 µM (hTS; [14]): 5%
- IC50 (CeTS; [12]): 11.4 µM
- remaining activity at 10 µM (CeTS; [13]): 59%
- remaining activity at 100 µM (CeTS; [14]): 14%
- ATP level reduced down to (BJ cells [2]): around 30%
- ATP level reduced down to (U-118 MG cells [3]): around 30%
- ATP level reduced down to (SCC-15 cells [4]): 20%
- concentration at which reduction of adhesion is significant/apparent (BJ cells [5]): 5 µM
- concentration at which reduction of adhesion is significant/apparent (U-118 MG cells [6]): 10 µM
- concentration at which reduction of adhesion is significant/apparent (SCC-15 cells [7]): 5 µM
- IC50 [8]: 4.75 µM
- IC50 [9]: 9.2 µM
- IC50 [10]: < 10 µM
- IC50 (TsTS; IC50, 20 µM dUMP and 50 µM meTHF, mean ± S.E.M. (N=3) for alvaxanthone, rheediaxanthone B not repeated): 50.8 µM
- remaining activity at 10 µM (TsTS; [13]): 68%
- remaining activity at 100 µM (TsTS; compound 100 µM, 20 µM dUMP, 50 µM meTHF): 40%
- IC50 [11]: 5.5 µM
- LC50 (C. elegans): 16 ± 10.2 µM
